Laboratory results published in patent publication US20170100447A1, “COMPOSITIONS BASED ON PLANT EXTRACTS FOR INHIBITION OF THE 5-ALPHA REDUCTASE” (BIONAP S.R.L., priority 2014, published 2017).

System: immortalized human sebocytes (SZ95 sebocyte line)
Assay: MTT assay on testosterone-stimulated sebocytes
Assay type: cell-based
Conditions: testosterone 10^−6 M; 9 days
Procedure: The line of immortalized human sebocytes (SZ95 sebocyte line) has been cultivated in medium Sebomed (Biochrom) supplemented with fetal calf serum 10%, […] of recombining human epidermal growth factor, 1 mM Ca^2+ and 50 μg/ml gentamicin, in an atmosphere of CO2 5% at 37° C. The SZ95 cells have been subsequently plated on wells for the MTT assays and, after 24 hours of incubation in an atmosphere of CO2 5% at 37° C., have been treated with a new culture medium containing testosterone in a final concentration of 10^−6 M and the extracts, according to the indications reported in Table 1.
The cellular vitality has been assessed for each sample after 9 days of treatment through colorimetric MTT assay (according to the protocol as above described) and expressed in a percentage value with respect to control (0%) and to the treatment with testosterone (test=100%). Each experiment has been carried out in triplicate.

## C[C@]12CC[C@H]3[C@@H](CCC4=CC(=O)CC[C@@]43C)[C@@H]1CC[C@@H]2O [testosterone]
  effect of testosterone on cellular proliferation of SZ95 sebocytes: induces in these cells an increase of cellular proliferation
